Here are results for five compounds from PMC3961306, “Comparison of the Cancer Gene Targeting and Biochemical Selectivities of All Targeted Kinase Inhibitors Approved for Clinical Use” (PLoS ONE, 2014).

Structures are written as SMILES.

Common to all, as to test: Kinase profiling in a biochemical assay panel (mobility shift assays and ELISA), %-inhibition at 1 μM; selectivity entropy
A general note: An ELISA detects its analyte on a solid surface through an enzyme-linked reagent.

Experiment [1] addresses panel of more than 300 wild-type and mutant kinases (313 kinase panel) (Homo sapiens, UniProt P22455). As to conditions: kinase FGFR4; compound at 1 μM.
For experiment [2], the target named is panel of more than 300 wild-type and mutant kinases (313 kinase panel) (Homo sapiens, UniProt P11802). As to conditions: kinase CDK4/CycD3; 1 μM compound.
Experiment [3] concerns the target panel of more than 300 wild-type and mutant kinases (313 kinase panel) (Homo sapiens, UniProt P45983). As to conditions: kinase JNK1; compound at 1 μM.
Experiment [4] deals with panel of more than 300 wild-type and mutant kinases (313 kinase panel) (Homo sapiens, UniProt Q9Y2H1). As to conditions: kinase NDR2; 1 μM.
Experiment [5] addresses panel of more than 300 wild-type and mutant kinases (313 kinase panel) (Homo sapiens, UniProt Q16654). As to conditions: kinase PDHK4; 1 μM.
Experiment [6] deals with panel of more than 300 wild-type and mutant kinases (313 kinase panel) (Homo sapiens, UniProt P78368). As to conditions: kinase CK1γ2; 1 μM compound.
Experiment [7] deals with panel of more than 300 wild-type and mutant kinases (313 kinase panel) (Homo sapiens, UniProt Q13554).
In experiment [8] the target is panel of more than 300 wild-type and mutant kinases (313 kinase panel) (Homo sapiens, UniProt Q9NYY3). Conditions: kinase PLK2; 1 μM.
Experiment [9] deals with panel of more than 300 wild-type and mutant kinases (313 kinase panel) (Homo sapiens, UniProt Q13164). Conditions: kinase Erk5; compound at 1 μM.
Experiment [10] concerns the target panel of more than 300 wild-type and mutant kinases (313 kinase panel) (Homo sapiens, UniProt Q96RG2). As to conditions: kinase PASK; 1 μM.
Experiment [11] addresses panel of more than 300 wild-type and mutant kinases (313 kinase panel) (Homo sapiens, UniProt Q13131). Conditions: kinase AMPKα1/β1/γ1; 1 μM compound.
Experiment [12] concerns the target panel of more than 300 wild-type and mutant kinases (313 kinase panel) (Homo sapiens, UniProt Q14680). As to conditions: kinase MELK; compound at 1 μM.
Experiment [13] has as its target panel of more than 300 wild-type and mutant kinases (313 kinase panel) (Homo sapiens, UniProt Q9Y3S1). Conditions: kinase WNK2; compound at 1 μM.
Experiment [14] has as its target panel of more than 300 wild-type and mutant kinases (313 kinase panel) (Homo sapiens, UniProt P04629). As to conditions: kinase TRKA; 1 μM.
The target in experiment [15] is panel of more than 300 wild-type and mutant kinases (313 kinase panel) (Homo sapiens, UniProt P04626). As to conditions: kinase HER2; compound at 1 μM.
panel of more than 300 wild-type and mutant kinases (313 kinase panel) (Homo sapiens, UniProt P04626), sequence (P04626 23-1255, change not shown): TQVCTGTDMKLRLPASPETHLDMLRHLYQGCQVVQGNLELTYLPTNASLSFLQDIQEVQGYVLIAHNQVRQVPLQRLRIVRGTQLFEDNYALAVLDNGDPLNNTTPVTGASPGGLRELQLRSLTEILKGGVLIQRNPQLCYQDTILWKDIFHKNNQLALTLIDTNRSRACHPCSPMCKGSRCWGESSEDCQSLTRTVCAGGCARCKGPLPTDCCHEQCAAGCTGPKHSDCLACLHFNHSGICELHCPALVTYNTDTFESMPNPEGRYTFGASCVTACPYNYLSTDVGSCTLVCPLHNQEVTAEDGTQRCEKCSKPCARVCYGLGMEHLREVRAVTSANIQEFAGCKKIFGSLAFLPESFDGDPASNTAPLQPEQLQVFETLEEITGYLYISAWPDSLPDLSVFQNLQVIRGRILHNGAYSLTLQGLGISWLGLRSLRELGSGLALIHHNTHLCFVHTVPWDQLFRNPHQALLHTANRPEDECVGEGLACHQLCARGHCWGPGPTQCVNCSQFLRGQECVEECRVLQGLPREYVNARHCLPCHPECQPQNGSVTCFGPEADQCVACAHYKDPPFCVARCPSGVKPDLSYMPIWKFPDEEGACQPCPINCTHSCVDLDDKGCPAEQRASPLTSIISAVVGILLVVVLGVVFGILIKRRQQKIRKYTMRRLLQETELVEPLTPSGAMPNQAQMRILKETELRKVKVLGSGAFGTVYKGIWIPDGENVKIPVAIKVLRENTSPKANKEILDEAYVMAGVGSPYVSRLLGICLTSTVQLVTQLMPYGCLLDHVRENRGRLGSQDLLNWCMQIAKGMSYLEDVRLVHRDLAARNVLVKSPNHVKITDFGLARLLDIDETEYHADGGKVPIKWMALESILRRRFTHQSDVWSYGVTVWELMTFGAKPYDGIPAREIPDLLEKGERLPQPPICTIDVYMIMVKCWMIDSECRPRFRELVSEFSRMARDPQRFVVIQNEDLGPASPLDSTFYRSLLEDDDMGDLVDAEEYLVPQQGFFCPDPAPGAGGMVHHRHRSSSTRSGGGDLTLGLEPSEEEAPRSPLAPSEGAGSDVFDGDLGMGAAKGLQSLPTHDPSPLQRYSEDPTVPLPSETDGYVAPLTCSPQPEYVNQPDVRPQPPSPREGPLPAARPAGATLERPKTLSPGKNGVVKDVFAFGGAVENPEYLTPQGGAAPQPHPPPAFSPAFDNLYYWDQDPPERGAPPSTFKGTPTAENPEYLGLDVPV

panel of more than 300 wild-type and mutant kinases (313 kinase panel) (Homo sapiens, UniProt Q13554), sequence (Q13554 whole entry, change not shown): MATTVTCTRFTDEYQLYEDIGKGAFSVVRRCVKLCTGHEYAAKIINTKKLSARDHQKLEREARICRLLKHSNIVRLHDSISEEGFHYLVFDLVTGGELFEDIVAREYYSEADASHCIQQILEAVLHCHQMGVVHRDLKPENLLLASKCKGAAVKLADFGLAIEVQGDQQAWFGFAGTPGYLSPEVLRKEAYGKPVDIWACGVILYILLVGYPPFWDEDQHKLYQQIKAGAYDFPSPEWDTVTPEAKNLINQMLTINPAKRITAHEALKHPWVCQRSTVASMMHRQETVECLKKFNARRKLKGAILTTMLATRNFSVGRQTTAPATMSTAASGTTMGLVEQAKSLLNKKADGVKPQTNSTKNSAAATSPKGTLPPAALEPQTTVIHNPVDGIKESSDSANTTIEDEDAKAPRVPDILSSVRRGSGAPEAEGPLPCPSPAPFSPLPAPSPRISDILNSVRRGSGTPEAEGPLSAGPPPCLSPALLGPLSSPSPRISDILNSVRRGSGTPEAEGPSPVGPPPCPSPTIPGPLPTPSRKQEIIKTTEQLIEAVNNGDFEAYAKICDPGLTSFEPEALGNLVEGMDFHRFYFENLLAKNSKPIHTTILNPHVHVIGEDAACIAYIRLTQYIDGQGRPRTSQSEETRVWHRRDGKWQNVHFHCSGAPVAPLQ
panel of more than 300 wild-type and mutant kinases (313 kinase panel) (Homo sapiens, UniProt P45983), sequence (P45983 whole entry, change not shown): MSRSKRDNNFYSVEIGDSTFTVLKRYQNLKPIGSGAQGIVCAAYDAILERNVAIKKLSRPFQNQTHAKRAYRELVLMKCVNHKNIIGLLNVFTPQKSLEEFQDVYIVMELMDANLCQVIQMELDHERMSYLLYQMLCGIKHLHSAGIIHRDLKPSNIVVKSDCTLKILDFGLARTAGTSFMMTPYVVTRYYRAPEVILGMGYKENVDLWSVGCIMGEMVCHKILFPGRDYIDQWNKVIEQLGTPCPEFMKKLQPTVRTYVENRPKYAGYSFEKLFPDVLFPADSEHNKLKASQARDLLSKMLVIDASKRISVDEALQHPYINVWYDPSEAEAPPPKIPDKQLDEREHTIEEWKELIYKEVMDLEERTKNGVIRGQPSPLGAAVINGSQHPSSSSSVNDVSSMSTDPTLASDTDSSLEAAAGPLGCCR
panel of more than 300 wild-type and mutant kinases (313 kinase panel) (Homo sapiens, UniProt P11802), sequence (P11802 whole entry, change not shown): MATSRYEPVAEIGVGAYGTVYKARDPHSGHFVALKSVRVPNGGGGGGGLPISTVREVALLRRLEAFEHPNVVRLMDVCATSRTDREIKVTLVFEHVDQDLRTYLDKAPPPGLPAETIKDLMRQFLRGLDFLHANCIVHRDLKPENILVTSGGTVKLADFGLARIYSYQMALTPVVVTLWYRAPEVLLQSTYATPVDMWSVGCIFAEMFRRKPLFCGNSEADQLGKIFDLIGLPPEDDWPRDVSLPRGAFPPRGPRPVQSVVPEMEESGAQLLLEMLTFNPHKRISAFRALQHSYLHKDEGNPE
panel of more than 300 wild-type and mutant kinases (313 kinase panel) (Homo sapiens, UniProt Q9Y2H1), sequence (Q9Y2H1 whole entry, change not shown): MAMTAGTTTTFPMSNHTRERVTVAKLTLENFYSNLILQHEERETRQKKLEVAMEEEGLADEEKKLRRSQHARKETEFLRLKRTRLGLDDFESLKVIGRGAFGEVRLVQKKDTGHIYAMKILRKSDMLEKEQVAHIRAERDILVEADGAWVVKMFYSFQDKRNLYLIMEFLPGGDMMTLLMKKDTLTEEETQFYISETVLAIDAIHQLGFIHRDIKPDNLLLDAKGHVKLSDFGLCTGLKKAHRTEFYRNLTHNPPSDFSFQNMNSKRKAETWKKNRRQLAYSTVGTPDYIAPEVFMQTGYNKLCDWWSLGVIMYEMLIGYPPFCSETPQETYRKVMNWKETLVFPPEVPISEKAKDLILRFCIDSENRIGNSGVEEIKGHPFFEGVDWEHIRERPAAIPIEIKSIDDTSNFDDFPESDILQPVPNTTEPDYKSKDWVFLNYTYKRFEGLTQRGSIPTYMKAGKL
panel of more than 300 wild-type and mutant kinases (313 kinase panel) (Homo sapiens, UniProt Q13131), sequence (Q13131 whole entry, change not shown): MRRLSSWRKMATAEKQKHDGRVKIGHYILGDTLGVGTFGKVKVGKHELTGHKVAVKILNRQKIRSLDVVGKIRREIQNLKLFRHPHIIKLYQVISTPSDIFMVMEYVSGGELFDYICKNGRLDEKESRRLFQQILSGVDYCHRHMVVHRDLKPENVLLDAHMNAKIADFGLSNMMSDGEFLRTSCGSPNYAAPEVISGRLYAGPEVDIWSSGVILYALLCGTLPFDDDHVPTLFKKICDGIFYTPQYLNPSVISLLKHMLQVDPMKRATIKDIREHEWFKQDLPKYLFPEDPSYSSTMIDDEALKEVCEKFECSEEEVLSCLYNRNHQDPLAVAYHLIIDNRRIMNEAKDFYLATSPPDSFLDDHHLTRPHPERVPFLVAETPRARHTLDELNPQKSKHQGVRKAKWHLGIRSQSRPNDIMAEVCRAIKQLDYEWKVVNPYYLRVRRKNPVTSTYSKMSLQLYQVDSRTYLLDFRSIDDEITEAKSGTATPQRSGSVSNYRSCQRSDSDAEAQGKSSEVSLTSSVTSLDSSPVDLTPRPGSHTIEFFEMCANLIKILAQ
panel of more than 300 wild-type and mutant kinases (313 kinase panel) (Homo sapiens, UniProt Q96RG2), sequence (Q96RG2 whole entry, change not shown): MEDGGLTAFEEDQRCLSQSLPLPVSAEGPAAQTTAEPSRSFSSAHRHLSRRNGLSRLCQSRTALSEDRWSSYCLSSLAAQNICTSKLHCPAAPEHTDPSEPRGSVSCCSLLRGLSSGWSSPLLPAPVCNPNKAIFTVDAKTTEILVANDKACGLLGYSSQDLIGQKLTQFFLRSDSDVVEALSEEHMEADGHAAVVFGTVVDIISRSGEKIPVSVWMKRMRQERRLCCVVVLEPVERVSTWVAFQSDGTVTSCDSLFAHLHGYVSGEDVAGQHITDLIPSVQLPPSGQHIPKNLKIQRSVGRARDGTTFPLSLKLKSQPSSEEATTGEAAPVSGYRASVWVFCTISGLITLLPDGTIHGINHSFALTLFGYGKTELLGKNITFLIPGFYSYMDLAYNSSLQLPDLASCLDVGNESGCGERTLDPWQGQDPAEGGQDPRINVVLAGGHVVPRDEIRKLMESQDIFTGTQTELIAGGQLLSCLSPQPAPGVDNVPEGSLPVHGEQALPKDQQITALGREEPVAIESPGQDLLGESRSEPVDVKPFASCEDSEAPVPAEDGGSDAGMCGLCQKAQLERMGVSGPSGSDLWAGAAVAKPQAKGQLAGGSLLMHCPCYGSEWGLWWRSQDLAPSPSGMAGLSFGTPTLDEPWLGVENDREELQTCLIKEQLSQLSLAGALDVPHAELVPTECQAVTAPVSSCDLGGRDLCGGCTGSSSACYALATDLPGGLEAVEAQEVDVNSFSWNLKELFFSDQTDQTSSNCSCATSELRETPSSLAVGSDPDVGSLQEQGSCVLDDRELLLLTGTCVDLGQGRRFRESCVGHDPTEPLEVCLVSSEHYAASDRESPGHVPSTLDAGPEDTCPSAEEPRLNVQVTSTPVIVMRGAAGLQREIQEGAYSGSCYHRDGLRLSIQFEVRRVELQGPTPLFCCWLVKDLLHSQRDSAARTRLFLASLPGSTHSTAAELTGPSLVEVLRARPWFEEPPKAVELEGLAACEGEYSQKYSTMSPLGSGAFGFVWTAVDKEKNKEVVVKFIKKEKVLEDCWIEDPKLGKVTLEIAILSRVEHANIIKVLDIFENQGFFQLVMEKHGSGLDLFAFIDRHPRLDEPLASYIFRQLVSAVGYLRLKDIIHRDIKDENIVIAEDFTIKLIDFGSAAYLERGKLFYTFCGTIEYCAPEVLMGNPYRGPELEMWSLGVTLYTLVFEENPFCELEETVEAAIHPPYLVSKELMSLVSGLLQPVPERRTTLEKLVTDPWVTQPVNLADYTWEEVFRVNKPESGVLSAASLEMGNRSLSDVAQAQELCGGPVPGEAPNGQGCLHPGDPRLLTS

Consider `N#CC[C@H](C1CCCC1)n1cc(-c2ncnc3[nH]ccc23)cn1` [ruxolitinib], for which the “%-inhibition of FGFR4” value in experiment [1] came to 6%. Besides, the “%-inhibition, CDK4/CycD3” value in experiment [2] is recorded as -1.74%. Moreover, the “%-inhibition of JNK1” value in experiment [3] is -3%. Moreover, the “%-inhibition of NDR2” value in [4] is given as 89%. Moreover, the “%-inhibition of PDHK4” value in [5] is reported as -6%. In addition, the “%-inhibition, CK1γ2” value in experiment [6] was -0.393%. In addition, the “%-inhibition, CaMK2β” value in experiment [7] (1 µM) worked out at 22%. The “%-inhibition of PLK2” value in [8] was 10%. The “%-inhibition of Erk5” value in [9] turned out to be 6%. The “%-inhibition of PASK” value in experiment [10] was found to be 0.47%. In addition, in [11], the “%-inhibition, AMPKα1/β1/γ1” value amounted to 2.17%. In addition, in experiment [12], the “%-inhibition of MELK” value came out at 34%. Further, the “%-inhibition of WNK2” value in [13] is -4.57%. For the same compound, the “%-inhibition of TRKA” value in experiment [14] was determined as 92%. In experiment [15], the “%-inhibition of HER2” value is -3.75%.
On to `CO[C@H]1C[C@@H]2CC[C@@H](C)[C@@](O)(O2)C(=O)C(=O)N2CCCC[C@H]2C(=O)O[C@H]([C@H](C)C[C@@H]2CC[C@@H](OC(=O)C(C)(CO)CO)[C@H](OC)C2)CC(=O)[C@H](C)/C=C(\C)[C@@H](O)[C@@H](OC)C(=O)[C@H](C)C[C@H](C)/C=C/C=C/C=C/1C` [temsirolimus], for which the “%-inhibition of FGFR4” value in experiment [1] is reported as -4.51%. In experiment [2], the “%-inhibition, CDK4/CycD3” value is -2.83%. In [3], the “%-inhibition of JNK1” value is -3.71%. Also, the “%-inhibition of NDR2” value in experiment [4] is -3.63%. For the same compound, the “%-inhibition of PDHK4” value in experiment [5] was -1.83%. The “%-inhibition, CK1γ2” value in experiment [6] was -3.32%. Further, the “%-inhibition, CaMK2β” value in [7] (kinase CaMK2β, 1 μM compound) is recorded as -9%. Moreover, in [8], the “%-inhibition of PLK2” value came out at 0.568%. Besides, the “%-inhibition of Erk5” value in experiment [9] was -5%. The “%-inhibition of PASK” value in experiment [10] was -8%. The “%-inhibition, AMPKα1/β1/γ1” value in [11] is reported as -4.34%. For the same compound, the “%-inhibition of MELK” value in [12] was -1.66%. Further, the “%-inhibition of WNK2” value in experiment [13] is on record as -7%. Moreover, in experiment [14], the “%-inhibition of TRKA” value was -3.53%. Further, the “%-inhibition of HER2” value in experiment [15] is -0.179%.
Consider `CC(=O)Nc1cccc(-n2c(=O)n(C3CC3)c(=O)c3c(Nc4ccc(I)cc4F)n(C)c(=O)c(C)c32)c1` [trametinib], for which the “%-inhibition of FGFR4” value in experiment [1] is -3%. Besides, the “%-inhibition, CDK4/CycD3” value in [2] is 5.62%. Besides, the “%-inhibition of JNK1” value in experiment [3] is listed as -4.68%. In addition, the “%-inhibition of NDR2” value in experiment [4] was -1.48%. Further, the “%-inhibition of PDHK4” value in [5] was -1.65%. For the same compound, the “%-inhibition, CK1γ2” value in [6] is -2.15%. In experiment [7] (kinase CaMK2β, 1 μM compound), the “%-inhibition, CaMK2β” value came to 0.738%. The “%-inhibition of PLK2” value in experiment [8] was -1.65%. Besides, the “%-inhibition of Erk5” value in experiment [9] is -2.55%. Further, in experiment [10], the “%-inhibition of PASK” value is -0.187%. Further, the “%-inhibition, AMPKα1/β1/γ1” value in experiment [11] is reported as -12%. The “%-inhibition of MELK” value in [12] is -0.588%. In experiment [13], the “%-inhibition of WNK2” value is 1.45%. For the same compound, the “%-inhibition of TRKA” value in [14] is -1.17%. Moreover, the “%-inhibition of HER2” value in experiment [15] was -5.36%.
As to `COc1cc2c(Nc3ccc(Br)cc3F)ncnc2cc1OCC1CCN(C)CC1` [vandetanib], the “%-inhibition of FGFR4” value in experiment [1] came out at 31%. The “%-inhibition, CDK4/CycD3” value in [2] is -9%. In experiment [3], the “%-inhibition of JNK1” value is reported as -0.604%. Also, the “%-inhibition of NDR2” value in experiment [4] is -9%. Also, in [5], the “%-inhibition of PDHK4” value is on record as -1.83%. In [6], the “%-inhibition, CK1γ2” value is given as -2%. Also, the “%-inhibition, CaMK2β” value in experiment [7] (kinase CaMK2β, 1 μM compound) is listed as -4.23%. In [8], the “%-inhibition of PLK2” value is -3%. Also, in experiment [9], the “%-inhibition of Erk5” value is 9%. Also, the “%-inhibition of PASK” value in experiment [10] is on record as -4.23%. For the same compound, the “%-inhibition, AMPKα1/β1/γ1” value in [11] worked out at 9%. Besides, in [12], the “%-inhibition of MELK” value is on record as 1.19%. Further, the “%-inhibition of WNK2” value in experiment [13] was -4.29%. Besides, the “%-inhibition of TRKA” value in experiment [14] is 46%. For the same compound, the “%-inhibition of HER2” value in experiment [15] turned out to be 67%.
On to `CCCS(=O)(=O)Nc1ccc(F)c(C(=O)c2c[nH]c3ncc(-c4ccc(Cl)cc4)cc23)c1F` [vemurafenib], for which the “%-inhibition of FGFR4” value in experiment [1] is listed as 5%. Besides, in [2], the “%-inhibition, CDK4/CycD3” value was -3.26%. For the same compound, in experiment [3], the “%-inhibition of JNK1” value came to 1.47%. Moreover, the “%-inhibition of NDR2” value in experiment [4] is -2.51%. The “%-inhibition of PDHK4” value in experiment [5] was -1.4%. Besides, the “%-inhibition, CK1γ2” value in experiment [6] came out at 0.506%. For the same compound, the “%-inhibition, CaMK2β” value in [7] (kinase CaMK2β, 1 μM compound) is recorded as -6.64%. For the same compound, the “%-inhibition of PLK2” value in experiment [8] is -1.85%. Further, the “%-inhibition of Erk5” value in experiment [9] came out at 0.709%. The “%-inhibition of PASK” value in experiment [10] was 2.35%. Further, in experiment [11], the “%-inhibition, AMPKα1/β1/γ1” value is recorded as -1.59%. Further, the “%-inhibition of MELK” value in [12] is 4%. In addition, the “%-inhibition of WNK2” value in [13] is 13%. In [14], the “%-inhibition of TRKA” value is listed as 16%. Besides, the “%-inhibition of HER2” value in experiment [15] was 2%.
